The values that follow come from patent US20180296537A1, “METHODS AND COMPOSITIONS FOR DIAGNOSING, TREATING, AND MONITORING TREATMENT OF SHANK3 DEFICIENCY ASSOCIATED DISORDERS” (Novartis AG, priority 2015, published 2018).

In one experiment the test system is CA1 neurons. Put plainly: mEPSC recordings from shRNA-expressing CA1 neurons in hippocampal organotypic slice cultures. Format: cell-based, mouse. Conditions: Shank3 knock down neurons; overnight 4 μg/ml SC79. As for the experimental part: Organotypice slices and cell cultures were transferred from growth medium to an interface chamber containing ACSF equilibrated with 95% O2/5% CO2 containing the following (in mM): 124 NaCl, 2.7 KCl, 2 CaCl2, 1.3 MgCl2, 26 NaHCO3, 0.4 NaH2PO4, 18 glucose, 4 ascorbate. Recordings were performed with ACSF in a recording chamber at a temperature of 35° C. at a perfusion rate of 1-2 ml/min. Neurons were visually identified with infrared video microscopy using an upright microscope equipped with a 40× objective (Olympus, Tokyo, Japan). Patch electrodes (3-5 MΩ) were pulled from borosilicate glass tubing. […]
Whole cell patch-clamp recordings were excluded if the access resistance exceeded 13 MΩ and changed more than 20% during the recordings. Data were recorded with a MultiClamp 700B (Molecular Devices) amplifier, filtered at 0.2 kHz, and digitised at 10 kHz. Data were acquired and analysed with Clampex 10.0, Clampfit 10.0 (Molecular Devices) and the Mini Analysis Program (Synaptosoft, Decatur, Ga.). […]
Given that SC79 and TG003 were able to recover spine numbers in Shank3 knock down neurons, the reinstatement of synaptic transmission was examined next. First, miniature excitatory postsynaptic currents (mEPSCs) were recorded from shRNA-expressing CA1 neurons in hippocampal organotypic slice cultures. […]

Experiment [1] has as its system IGF-signaling impaired zebrafish model. Conditions: cited from earlier work.
Experiment [2] concerns Shank3^ΔC/ΔC mice. Nature of the experiment: Spontaneous self-grooming. The experiment is classed as in vivo, mouse. Conditions: 10 minute interval; TG003-treated Shank3^ΔC/ΔC mice. The method, then:
To monitor spontaneous self-grooming, mice were placed in a clean cage (identical to the home cage), with minimal bedding to discourage digging, which was then placed in the sound-proof box for video monitoring. Animals were habituated in the new cage for 10 minutes before self-grooming was monitored during another 10 minutes. Cumulative grooming time was reported for this second 10 minute period.

The subject of a further experiment is Akt. Nature of the experiment: In vivo Akt phosphorylation in Shank3^ΔC/ΔC mice. Further details: species or system mouse. Conditions: 30 mg/kg TG003 intraperitoneal. The text has this:
To determine whether the above findings extend to autism spectrum disorder (ASD)-like behaviors, a Shank3-deficient mouse model was generated by ablation of Shank3 exon 21 (FIGS. 8A and 8B) as previously described (Kouser et al., Journal of Neuroscience 33, 18448-18468, 2013; Duffney et al., Cell reports 11, 1400-1413, 2015). To generate Shank3 exon 21-deleted mice, the exon 21 genomic region of Shank3 (2464 bp in size) was replaced by homologous recombination with a loxP-TK_Neo-loxP cassette. The Neo cassette was flanked by a 3 kb 5′ homology arm and a 1.6 kb 3′ homology arm. Linearized targeting vector DNA was electroporated into C57BL6/J ES cells, and G418 resistant ES clones were first screened by nested PCR, and then subjected to Southern blot analysis. For Southern analysis, genomic DNA was digested with restriction enzyme(s), and hybridized with probes positioned outside the 5′ and 3′ homologous regions. Targeted ES clones were used for blastocyst injection, and chimeric males were mated with transgenic Cre-expressing C57B1/6 mice females to remove the neomycin resistance cassette. Animals without the neo cassette were used as F1 mice to establish the Shank3 exon 21-deleted (Shank3^ΔC/ΔC) colony.
The major Shank3 isoforms were absent in the homozygous mice (Shank3^ΔC/ΔC), while faster-migrating, truncated fragments were detected (FIG. 8C).

Experiment [3] has as its system Shank3^ΔC/ΔC mice. Nature of the experiment: Three-chamber social interaction task. The experiment is classed as in vivo, mouse. As for the experimental part: The three-chamber social interaction task was performed in a three-chambered arena with transparent walls and retractable doorways to allow mice access to flanking chambers (FIG. 9F). During testing, the arena was placed in a lighted, sound-proof box with no side-biasing features. A video camera was mounted above for recording. The test comprised three phases with different stimuli placed in the side chambers successively between phases. Each stimulus (social or inanimate) was placed within a small wire cage for immobilization while test mice were allowed to freely investigate the stimuli. In Phase 1, identical inanimate objects (inverted ceramic cups with blue stripe) were placed in both side chambers. An intruder mouse (same strain) was introduced in one side chamber as the social stimulus in Phase 2. In Phase 3, a second intruder mouse was placed in the other side chamber (novel social stimulus). Each phase consisted of a 7.5 minute exploration period with 5 minutes in the home cage between phases. The test animal was placed in the center chamber to start the task. Animals were habituated to the arena 24 hours before testing during which time they were allowed to freely explore the entire arena, with empty wire cages in side chambers, for 10 minutes. Social interaction time for a given phase was scored by cumulative social/investigative behaviors, in particular sniffing and actively seeking a stimulus. Proximity to a stimulus without investigation was not counted. Preference index was calculated by subtracting interaction time with one stimulus from that of the other stimulus in the same testing phase then dividing this by the sum of interaction times for both stimuli and converting this to a percentage. Positive scores indicate a preference for the first stimulus in the equation. […]

Experiment [4] has as its system Shank3^ΔC/ΔC mice. Put plainly: Marble burying (avoidance behavior). Format: in vivo, mouse. Particulars: 30 minutes, 20 marbles; TG003 treatment. As for the experimental part:
To assess avoidance behavior by marble burying, 20 black marbles were evenly distributed in rows in a novel home cage on top of 5 cm of fresh bedding and mice were left undisturbed for 30 minutes in the cage. The number of marbles to at least ⅔ depth were then recorded.

“Also recorded” adds a separate entry of the source.

For `CCOC(=O)C1=C(N)Oc2ccc(Cl)cc2C1C(C#N)C(=O)OCC` (stereo not drawn) [SC79], the mEPSC frequency entry with CA1 neurons is “completely restored mEPSC frequency to control levels”. The habituation learning result in experiment [1] is “restore habituation learning”.

For the compound `CCN1/C(=C/C(C)=O)Sc2ccc(OC)cc21` [TG003, (Z)-1-(3-ethyl-5-methoxy-2,3-dihydrobenzothiazol-2-ylidene)propan-2-one], the self-grooming entry with Shank3^ΔC/ΔC mice [2] was “significantly decreased self-grooming although not to wild type frequency”. In the experiment on Akt, the “Akt phosphorylation in vivo” value is “increases Akt phosphorylation”. The total distance travelled result in the experiment on Shank3^ΔC/ΔC mice [3] (phase 1 or phase 2, TG003-treated mice) is listed as “no change from wild type in total distance travelled”. For the same compound, in the experiment on Shank3^ΔC/ΔC mice [3] (phase 2, 30 mg/kg TG003 i.p. 6-8 hours before testing, 30 mg/kg), the “preference for social interaction (S1 versus O1 interaction times)” value is reported as “recovered normal preference for social interaction; also recorded: corrected”. For the same compound, in the experiment with Shank3^ΔC/ΔC mice [3] (phase 2, 72 hours after TG003 treatment), the “social investigation after delay” value is “maintained 72 hours after treatment”. Moreover, in the experiment with Shank3^ΔC/ΔC mice [3] (phase 2, TG003-treated Shank3^ΔC/ΔC mice), the “time spent in S1 chamber” value was “restores the time spent in the Si chamber to wild type levels”. In the experiment with Shank3^ΔC/ΔC mice [4], the “avoidance behavior, marble burying” value is “refractory to treatment with TG003”.
